From patent US9492460B2, “Carbazole compounds useful as bromodomain inhibitors” (Bristol-Myers Squibb Company, priority 2013, dated 2016)

These compounds were tested against T1, bromodomain BRD4 (44-168), BRD4 (333-460), and BRD4 (1-477 or 44-460) (Homo sapiens, UniProt O60885) (assay: Time Resolved Fluorescence Resonance Energy Transfer (TR-FRET) binding assay). Conditions: one of the FRET assays described.
T1 construct: BRD4(44-168), BRD4(333-460), BRD4(44-460), BRD4(1-477), O60885-1; fused on or other part: N-terminal BirA biotinylation motif, biotinylated; The TVMV-cleavable His6 tag is removed, except in some BRD4(44-460) runs detected with anti-His terbium cryptate

Structure (SMILES)	IC50 [nM]
CCn1c2ccc(C(=O)N3C[C@@H](C)O[C@@H](C)C3)cc2c2ccc(-c3c(C)noc3C)cc21 [Example 2, 2-(3,5-dimethyl-4-isoxazolyl)-6-((cis-2,6-dimethyl-4-morpholinyl)carbonyl)-9-ethyl-9H-carbazole]	< 500
Cc1ccccc1Cn1c2ccc(C(=O)N3CC(C)OC(C)C3)cc2c2ccc(-c3c(C)noc3C)cc21 (stereo not shown) [Example 19]	< 500
Cc1noc(C)c1-c1cc(C(N)=O)c2c3cc(C(=O)N4CC(F)C4)ccc3n(C(C)c3ccc(Cl)cc3)c2c1 (stereo not shown) [Example 94, 9-(1-(4-chlorophenyl)ethyl)-2-(3,5-dimethyl-4-isoxazolyl)-6-((3-fluoro-1-azetidinyl)carbonyl)-9H-carbazole-4-carboxamide]	< 50
Cc1noc(C)c1-c1cc(C(N)=O)c2c3cc(C(=O)N4CCC(C)CC4)ccc3n(Cc3ccccc3)c2c1 [Example 74]	< 50
Cc1noc(C)c1-c1cc(C(N)=O)c2c3cc(C(=O)N4CC(C)OC(C)C4)ccc3n(Cc3cc(F)ccc3F)c2c1 (stereo not shown) [Example 42]	< 50
Cc1noc(C)c1-c1ccc2c3cc(C(=O)N4CC(C)OC(C)C4)ccc3n(CCF)c2c1 (stereo not shown) [Example 6]	< 500
Cc1noc(C)c1-c1cc(C(N)=O)c2c3cc(C(=O)N4CC(C)OC(C)C4)ccc3n(Cc3ccccc3C#N)c2c1 (stereo not shown) [Example 43]	< 50
Cc1noc(C)c1-c1cc(C(N)=O)c2c3cc(C(=O)N4CC(C)OC(C)C4)ccc3n(Cc3ccc(C#N)cc3)c2c1 (stereo not shown) [Example 37]	< 50
Cc1noc(C)c1-c1ccc2c3cc(C(=O)N4CC(C)OC(C)C4)ccc3n(Cc3cccc(Cl)c3)c2c1 (stereo not shown) [Example 13]	< 500
Cc1noc(C)c1-c1cc(C(N)=O)c2c3cc(C(=O)N4CC(C)OC(C)C4)ccc3n(Cc3cscn3)c2c1 (stereo not shown) [Example 27]	< 50
Cc1noc(C)c1-c1cc(C(N)=O)c2c3cc(C(=O)N4CC(F)C4)ccc3n(CC3CCC3)c2c1 [Example 90]	< 50
Cc1noc(C)c1-c1ccc2c3cc(C(=O)N4CC(C)OC(C)C4)ccc3n(Cc3ccc(Cl)cc3)c2c1 (stereo not shown) [Example 12]	< 500
Cc1noc(C)c1-c1cc(C(N)=O)c2c3cc(C(=O)N4CC(F)C4)ccc3n(Cc3ccc(F)cc3)c2c1 [Example 93]	< 50
Cc1noc(C)c1-c1ccc2c3cc(C(=O)N4C[C@@H](C)O[C@@H](C)C4)ccc3n(C(=O)c3ccccc3)c2c1 [Example 24, 9-benzoyl-2-(3,5-dimethyl-4-isoxazolyl)-6-((cis-2,6-dimethyl-4-morpholinyl)carbonyl)-9H-carbazole]	< 500
Cc1noc(C)c1-c1ccc2c3cc(C(=O)N4CC(C)OC(C)C4)ccc3n(Cc3ccc(F)cc3)c2c1 (stereo not shown) [Example 18]	< 500
COC1CCN(C(=O)c2ccc3c(c2)c2c(C(N)=O)cc(-c4c(C)noc4C)cc2n3Cc2ccccc2)CC1 [Example 70]	< 50
Cc1noc(C)c1-c1cc(C(N)=O)c2c3cc(C(=O)N4CCOCC4)ccc3n(Cc3ccccc3)c2c1 [Example 47, 9-benzyl-2-(3,5-dimethyl-4-isoxazolyl)-6-(4-morpholinylcarbonyl)-9H-carbazole-4-carboxamide]	< 50

Results, then the compound that gave them:

IC50 [nM]	Structure (SMILES)
< 50	CNC(=O)c1cc(-c2c(C)noc2C)cc2c1c1cc(N(C)C(C)=O)ccc1n2Cc1ccccc1 [Example 132, 6-(acetyl(methyl)amino)-9-benzyl-2-(3,5-dimethyl-4-isoxazolyl)-N-methyl-9H-carbazole-4-carboxamide]
< 50	Cc1noc(C)c1-c1cc(C(N)=O)c2c3cc(N4CCCOC4=O)ccc3n(Cc3ccc(F)cc3)c2c1 [Example 151, 2-(3,5-dimethyl-4-isoxazolyl)-9-(4-fluorobenzyl)-6-(2-oxo-1,3-oxazinan-3-yl)-9H-carbazole-4-carboxamide]
< 50	Cc1noc(C)c1-c1cc(C(N)=O)c2c3ccc(C(C)(C)O)cc3n(C(c3ccc(F)cc3)C3CCOCC3)c2c1 (single isomer, unassigned) [Example 219, 2-(Dimethyl-1,2-oxazol-4-yl)-9-[(4-fluorophenyl)(oxan-4-yl)methyl]-7-(2-hydroxypropan-2-yl)-9H-carbazole-4-carboxamide]
< 50	Cc1noc(C)c1-c1cc(C(N)=O)c2c3ccc(C(C)(C)O)cc3n(C(c3ccccc3)C3(F)CCC3)c2c1 (single isomer, unassigned) [Example 222, 2-(Dimethyl-1,2-oxazol-4-yl)-9-[(1-fluorocyclobutyl)(phenyl)methyl]-7-(2-hydroxypropan-2-yl)-9H-carbazole-4-carboxamide]
< 50	CNC(=O)Nc1ccc2c(c1)c1c(C(N)=O)cc(-c3c(C)noc3C)cc1n2Cc1ccccc1 [Example 148, 9-benzyl-2-(3,5-dimethyl-4-isoxazolyl)-6-((methylcarbamoyl)amino)-9H-carbazole-4-carboxamide]
< 50	CCNC(=O)c1cc(-c2c(C)noc2C)cc2c1c1cc(N3CCCOC3=O)ccc1n2C(C)c1ccccc1 (stereo not shown) [Example 167, 2-(3,5-dimethyl-4-isoxazolyl)-N-ethyl-6-(2-oxo-1,3-oxazinan-3-yl)-(1-phenylethyl)-9H-carbazole-4-carboxamide]
< 50	Cc1noc(C)c1-c1cc(C(N)=O)c2c3cc(C(=O)N4CC(F)(F)C4)ccc3n(C(C)c3ccccc3)c2c1 (single isomer, unassigned) [Example 98, 6-((3,3-difluoro-1-azetidinyl)carbonyl)-2-(3,5-dimethyl-4-isoxazolyl)-9-(1-phenylethyl)-9H-carbazole-4-carboxamide]
< 50	Cc1noc(C)c1-c1cc(C(N)=O)c2c3cc(NC(=O)N(C)C)ccc3n(Cc3ccccc3)c2c1 [Example 147, 9-benzyl-6-((dimethylcarbamoyl)amino)-2-(3,5-dimethyl-4-isoxazolyl)-9H-carbazole-4-carboxamide]
< 500	CCNC(=O)c1cc(-c2c(C)noc2C)cc2c1c1cc(N3CCCOC3=O)ccc1n2Cc1ccccc1 [Example 165, 9-benzyl-2-(3,5-dimethyl-4-isoxazolyl)-N-ethyl-6-(2-oxo-1,3-oxazinan-3-yl)-9H-carbazole-4-carboxamide]
< 50	COC(=O)c1ccc2c3c(C#N)cc(-c4c(C)noc4C)cc3n(C(c3ccccc3)c3ccccc3)c2c1 [Example 191, Methyl 5-cyano-7-(3,5-dimethyl-4-isoxazolyl)-9-(diphenylmethyl)-9H-carbazole-2-carboxylate]
< 50	Cc1noc(C)c1-c1cc(C(N)=O)c2c3cc(S(C)(=O)=O)ccc3n(Cc3ccccc3)c2c1 [Example 181, 9-benzyl-2-(3,5-dimethyl-4-isoxazolyl)-6-(methylsulfonyl)-9H-carbazole-4-carboxamide]
< 50	CNC(=O)c1cc(-c2c(C)noc2C)cc2c1c1cc(C(=O)N3CC(F)C3)ccc1n2Cc1ccc(Cl)cc1F [Example 110]
< 50	COC(C)(C)c1ccc2c3c(C(N)=O)cc(-c4c(C)noc4C)cc3n([C@H](c3ccccc3)C3CCOCC3)c2c1 [Example 228, 2-(Dimethyl-1,2-oxazol-4-yl)-7-(2-methoxypropan-2-yl)-9-[(S)-oxan-4-yl(phenyl)methyl]-9H-carbazole-4-carboxamide]
< 50	COc1ccc2c(c1)c1c(C(N)=O)cc(-c3c(C)noc3C)cc1n2C(C)c1ccccc1 (single isomer, unassigned) [Example 180, 2-(3,5-dimethyl-4-isoxazolyl)-6-methoxy-9-(1-phenylethyl)-9H-carbazole-4-carboxamide]
< 50	CNC(=O)c1cc(-c2c(C)noc2C)cc2c1c1cc(N3CCCOC3=O)ccc1n2Cc1ccc(F)cc1 [Example 171, 2-(3,5-dimethyl-4-isoxazolyl)-9-(4-fluorobenzyl)-N-methyl-6-(2-oxo-1,3-oxazinan-3-yl)-9H-carbazole-4-carboxamide]
< 50	Cc1noc(C)c1-c1cc(C(N)=O)c2c3cc(C(=O)N4CC(F)(F)C4)ccc3n(C(C)c3ccccc3)c2c1 (single isomer, unassigned) [Example 97, 6-((3,3-difluoro-1-azetidinyl)carbonyl)-2-(3,5-dimethyl-4-isoxazolyl)-9-(1-phenylethyl)-9H-carbazole-4-carboxamide]
< 50	Cc1noc(C)c1-c1cc(C(N)=O)c2c3ccc(C(=O)N4CCOCC4)cc3n(Cc3ccccc3)c2c1 [Example 188, 9-Benzyl-2-(3,5-dimethyl-4-isoxazolyl)-7-(morpholine-4-carbonyl)-9H-carbazole-4-carboxamide]
< 50	Cc1noc(C)c1-c1cc(C(N)=O)c2c3cc(N4CCCS4(=O)=O)ccc3n(Cc3ccc(F)cc3)c2c1 [Example 174, 2-(3,5-dimethyl-4-isoxazolyl)-6-(1,1-dioxido-2-isothiazolidinyl)-9-(4-fluorobenzyl)-9H-carbazole-4-carboxamide]
< 50	Cc1noc(C)c1-c1cc(C(N)=O)c2c3cc(N4CCCOC4=O)ccc3n(Cc3ccccc3)c2c1 [Example 156, 9-benzyl-2-(3,5-dimethyl-4-isoxazolyl)-6-(2-oxo-1,3-oxazinan-3-yl)-9H-carbazole-4-carboxamide]
< 50	Cc1noc(C)c1-c1cc(C(N)=O)c2c3cc(N4CCOC4=O)ccc3n(Cc3ccc(F)cc3)c2c1 [Example 152, 2-(3,5-dimethyl-4-isoxazolyl)-9-(4-fluorobenzyl)-6-(2-oxo-1,3-oxazolidin-3-yl)-9H-carbazole-4-carboxamide]
< 500	Cc1noc(C)c1-c1cc(C#N)c2c3ccc(C(C)(C)O)cc3n(Cc3ccccc3)c2c1 [Example 184, 9-benzyl-2-(3,5-dimethyl-4-isoxazolyl)-7-(1-hydroxy-1-methylethyl)-9H-carbazole-4-carbonitrile]
< 50	CNC(=O)c1cc(-c2c(C)noc2C)cc2c1c1cc(C(=O)N3CC(F)C3)ccc1n2C(C)c1ccc(Cl)cc1 (stereo not shown) [Example 111]
< 50	Cc1noc(C)c1-c1cc(C(N)=O)c2c3cc(NCCF)ccc3n(Cc3ccccc3)c2c1 [Example 136, 9-benzyl-2-(3,5-dimethyl-4-isoxazolyl)-6-(2-fluoroethylamino)-9H-carbazole-4-carboxamide]
